Test results reported in PMC9550195, “GSK3β-dependent lysosome biogenesis: An effective pathway to mitigate renal fibrosis with LM49” (Frontiers in Pharmacology, 2022).

Biological target: T1, GSK3β (Homo sapiens, UniProt P49841)
T1 construct: gene GSK3B
Assay: BLI with immobilised biotinylated recombinant GSK-3β; supported by mobility shift kinase assay (IC50 […]), Lineweaver-Burk, CETSA, DARTS
Assay type: binding

T1 sequence (P49841 whole entry): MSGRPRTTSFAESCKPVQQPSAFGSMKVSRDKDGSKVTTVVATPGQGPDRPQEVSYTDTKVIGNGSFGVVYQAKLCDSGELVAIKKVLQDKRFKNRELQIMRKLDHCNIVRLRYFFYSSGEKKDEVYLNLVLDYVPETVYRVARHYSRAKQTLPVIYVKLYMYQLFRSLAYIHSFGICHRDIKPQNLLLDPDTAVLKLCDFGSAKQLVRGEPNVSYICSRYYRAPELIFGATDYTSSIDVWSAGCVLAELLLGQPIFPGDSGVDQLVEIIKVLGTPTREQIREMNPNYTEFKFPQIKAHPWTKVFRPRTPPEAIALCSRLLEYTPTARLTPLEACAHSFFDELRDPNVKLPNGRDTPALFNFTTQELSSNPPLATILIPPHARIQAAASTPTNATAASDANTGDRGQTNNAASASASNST

- Kd: 122 µM
SMILES: O=C(c1cc(Br)ccc1O)c1cc(O)c(O)cc1Br [LM49, 5,2′-dibromo-2,4′,5′-trihydroxydiphenylmethanone]
